Experiment: Sea salt added to the turmeric mixture, folliculitis after treatment
Assay type: in vivo
Text: It is believed that the sea salt help to open or penetrate the cellular wall. […] It is believed that the sea salt should be between about 1-10 parts of the turmeric mixture, with the remaining 90-99 parts being turmeric and milk/clay/etc. A presently preferred range is about 1-2 parts sea salt to about […] turmeric mixture.

With sea salt the folliculitis after treatment was “appears to help to minimize folliculitis”.
